Assay results taken from the supplement of paper PMC10307832.

What was measured:
Assay in all cases: relative viability (nuclei count vs DMSO), 5 days (fraction); higher = more cells survive
[1] = tested on: NCI-H1650
How it was run: (§1)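 Lung cancer cell lines, seeded in 1536-well plates, were treated the following day by pin tool with a single drug or with five library-drug doses (not always all listed) in √10 steps on top of a fixed anchor-drug dose. Cells were fixed and nuclei stained in one step after 5 days, and nuclei were counted. Relative viability is the nuclei count for treated wells divided by that for vehicle wells, reported as medians of duplicate plates.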

[2] = tested on: NCI-H2087
How it was run: as §1

[3] = tested on: NCI-H1651
How it was run: as §1

[4] = tested on: COR-L23
How it was run: as §1

[5] = tested on: COR-L 105
How it was run: as §1

[6] = tested on: HCC-44
How it was run: as §1

[7] = tested on: NCI-H647
How it was run: as §1

[8] = tested on: NCI-H1975
How it was run: as §1

[9] = tested on: EPLC-272H
How it was run: as §1

[10] = tested on: H3255
How it was run: as §1

[11] = tested on: EKVX
How it was run: as §1

[12] = tested on: NCI-H661
How it was run: as §1

[13] = tested on: NCI-H1792
How it was run: as §1

[14] = tested on: HCC-827
How it was run: as §1

[15] = tested on: HCC-15
How it was run: as §1

[16] = tested on: LCLC-103H
How it was run: as §1

[17] = tested on: 201T
How it was run: as §1

[18] = tested on: NCI-H358
How it was run: as §1

[19] = tested on: NCI-H520
How it was run: as §1

[20] = tested on: NCI-H1437
How it was run: as §1

[21] = tested on: UMC-11
How it was run: as §1

Cc1cnc(-c2cnc(NCCNc3ccc(C#N)cn3)nc2-c2ccc(Cl)cc2Cl)[nH]1 + Nc1nc2[nH]cc(CCc3ccc(C(=O)N[C@@H](CCC(=O)O)C(=O)O)cc3)c2c(=O)[nH]1 [Pemetrexed] (partner 0.2 µM)
relative viability ([1]; first compound 0.08 µM): 0.356 | relative viability ([1]; first compound 0.253 µM): 0.361 | relative viability ([1]; first compound 0.8 µM): 0.315 | relative viability ([1]; first compound 2.53 µM): 0.289 | relative viability ([2]; first compound 0.08 µM): 0.714 | relative viability ([2]; first compound 0.8 µM): 0.641 | relative viability ([2]; first compound 2.53 µM): 0.511 | relative viability ([3]; first compound 0.08 µM): 0.574 | relative viability ([3]; first compound 0.253 µM): 0.493 | relative viability ([3]; first compound 0.8 µM): 0.528 | relative viability ([3]; first compound 2.53 µM): 0.537 | relative viability ([4]; first compound 0.08 µM): 0.191 | relative viability ([4]; first compound 0.253 µM): 0.19 | relative viability ([4]; first compound 0.8 µM): 0.198 | relative viability ([4]; first compound 2.53 µM): 0.185 | relative viability ([5]; first compound 0.08 µM): 1.25 | relative viability ([5]; first compound 0.253 µM): 1.06 | relative viability ([5]; first compound 0.8 µM): 0.903 | relative viability ([5]; first compound 2.53 µM): 0.832 | relative viability ([6]; first compound 0.08 µM): 0.633 | relative viability ([6]; first compound 0.253 µM): 0.631 | relative viability ([6]; first compound 0.8 µM): 0.643 | relative viability ([6]; first compound 2.53 µM): 0.685 | relative viability ([7]; first compound 0.08 µM): 0.18 | relative viability ([7]; first compound 0.253 µM): 0.148 | relative viability ([7]; first compound 0.8 µM): 0.145 | relative viability ([7]; first compound 2.53 µM): 0.114 | relative viability ([8]; first compound 0.08 µM): 0.289 | relative viability ([8]; first compound 0.253 µM): 0.285 | relative viability ([8]; first compound 0.8 µM): 0.287 | relative viability ([8]; first compound 2.53 µM): 0.242 | relative viability ([9]; first compound 0.08 µM): 0.388 | relative viability ([9]; first compound 0.253 µM): 0.293 | relative viability ([9]; first compound 0.8 µM): 0.344 | relative viability ([9]; first compound 2.53 µM): 0.276 | relative viability ([10]; first compound 0.08 µM): 0.555 | relative viability ([10]; first compound 0.253 µM): 0.587 | relative viability ([10]; first compound 0.8 µM): 0.533 | relative viability ([10]; first compound 2.53 µM): 0.508 | relative viability ([11]; first compound 0.08 µM): 0.455 | relative viability ([11]; first compound 0.253 µM): 0.358 | relative viability ([11]; first compound 0.8 µM): 0.339 | relative viability ([12]; first compound 0.08 µM): 0.876 | relative viability ([12]; first compound 0.253 µM): 0.887 | relative viability ([12]; first compound 0.8 µM): 0.738 | relative viability ([12]; first compound 2.53 µM): 0.649 | relative viability ([13]; first compound 0.08 µM): 0.946 | relative viability ([13]; first compound 0.253 µM): 0.728 | relative viability ([13]; first compound 0.8 µM): 0.775 | relative viability ([13]; first compound 2.53 µM): 0.724 | relative viability ([14]; first compound 0.08 µM): 0.27 | relative viability ([14]; first compound 0.253 µM): 0.267 | relative viability ([14]; first compound 0.8 µM): 0.245 | relative viability ([14]; first compound 2.53 µM): 0.269 | relative viability ([15]; first compound 0.08 µM): 0.207 | relative viability ([15]; first compound 0.253 µM): 0.219 | relative viability ([15]; first compound 0.8 µM): 0.216 | relative viability ([15]; first compound 2.53 µM): 0.194 | relative viability ([16]; first compound 0.08 µM): 0.49 | relative viability ([16]; first compound 0.253 µM): 0.43 | relative viability ([16]; first compound 0.8 µM): 0.453 | relative viability ([16]; first compound 2.53 µM): 0.418 | relative viability ([17]; first compound 0.08 µM): 0.316 | relative viability ([17]; first compound 0.8 µM): 0.345 | relative viability ([17]; first compound 2.53 µM): 0.301 | relative viability ([18]; first compound 0.08 µM): 0.168 | relative viability ([18]; first compound 0.253 µM): 0.182 | relative viability ([18]; first compound 0.8 µM): 0.184 | relative viability ([18]; first compound 2.53 µM): 0.16 | relative viability ([19]; first compound 0.08 µM): 0.729 | relative viability ([19]; first compound 0.253 µM): 0.727 | relative viability ([19]; first compound 0.8 µM): 0.74 | relative viability ([19]; first compound 2.53 µM): 0.492 | relative viability ([20]; first compound 0.08 µM): 0.3 | relative viability ([20]; first compound 0.253 µM): 0.328 | relative viability ([20]; first compound 0.8 µM): 0.268 | relative viability ([20]; first compound 2.53 µM): 0.269 | relative viability ([21]; first compound 0.08 µM): 0.867 | relative viability ([21]; first compound 0.253 µM): 0.772 | relative viability ([21]; first compound 0.8 µM): 0.822 | relative viability ([21]; first compound 2.53 µM): 0.735
